In US9611267B2, “Substituted tricyclic compounds as FGFR inhibitors” (Incyte Corporation, priority 2012, dated 2017):

Experiments:
Type in all cases: biochemical
FGFR1 = FGFR1 (Homo sapiens (Human), UniProt P11362); test: FGFR enzymatic assay (FRET peptide phosphorylation), FGFR1; conditions: FGFR1 enzyme 0.02 nM, ATP 210 μM
In short: (§1)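 Recombinant kinase was pre-incubated 5–10 min with serially diluted inhibitor in HEPES buffer (10 mM MgCl2, 5 mM DTT, pH 7.5; buffer described for FGFR3). Peptide phosphorylation ran 1 h at 25 °C and was detected by FRET after ~1 h equilibration. IC50 values come from variable-slope sigmoidal fits.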

FGFR2 = FGFR2 (Homo sapiens (Human), UniProt P21802); test: FGFR enzymatic assay (FRET peptide phosphorylation), FGFR2; conditions: FGFR2 enzyme 0.01 nM, ATP 100 μM
In short: as §1

FGFR3 = FGFR3 (Homo sapiens (Human), UniProt P22607); test: FGFR enzymatic assay (FRET peptide phosphorylation), FGFR3; conditions: FGFR3 enzyme (Millipore), ATP 140 μM
In short: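 FRET assay of peptide phosphorylation by FGFR3 in HEPES pH 7.5 buffer with MgCl2, EGTA, Tween-20 and DTT. Enzyme was pre-incubated 5-10 min with compound, and the reaction ran 1 hr at 25° C. IC50 came from a variable-slope sigmoidal fit.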

Measured: IC50

Sequence of FGFR2 (P21802 22-821): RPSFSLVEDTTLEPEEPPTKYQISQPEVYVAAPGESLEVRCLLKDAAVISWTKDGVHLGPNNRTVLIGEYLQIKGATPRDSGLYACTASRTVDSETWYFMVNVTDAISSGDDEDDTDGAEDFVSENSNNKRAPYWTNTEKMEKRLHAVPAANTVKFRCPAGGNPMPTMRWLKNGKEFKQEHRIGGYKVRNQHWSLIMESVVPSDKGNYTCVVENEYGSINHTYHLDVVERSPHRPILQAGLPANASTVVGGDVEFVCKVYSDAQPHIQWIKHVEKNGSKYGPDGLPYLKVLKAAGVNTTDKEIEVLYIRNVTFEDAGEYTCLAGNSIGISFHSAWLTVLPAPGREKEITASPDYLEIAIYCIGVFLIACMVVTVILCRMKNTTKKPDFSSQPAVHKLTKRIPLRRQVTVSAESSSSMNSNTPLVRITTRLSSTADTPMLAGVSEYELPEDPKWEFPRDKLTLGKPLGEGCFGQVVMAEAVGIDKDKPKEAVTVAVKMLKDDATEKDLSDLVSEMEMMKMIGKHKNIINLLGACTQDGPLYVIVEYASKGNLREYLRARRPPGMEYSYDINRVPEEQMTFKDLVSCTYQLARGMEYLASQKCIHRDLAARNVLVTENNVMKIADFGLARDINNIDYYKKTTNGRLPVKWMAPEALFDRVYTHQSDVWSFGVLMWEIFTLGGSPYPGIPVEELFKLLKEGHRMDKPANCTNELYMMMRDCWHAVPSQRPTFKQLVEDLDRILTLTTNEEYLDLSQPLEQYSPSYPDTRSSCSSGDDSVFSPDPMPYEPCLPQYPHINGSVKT
Sequence of FGFR3 (P22607 23-806): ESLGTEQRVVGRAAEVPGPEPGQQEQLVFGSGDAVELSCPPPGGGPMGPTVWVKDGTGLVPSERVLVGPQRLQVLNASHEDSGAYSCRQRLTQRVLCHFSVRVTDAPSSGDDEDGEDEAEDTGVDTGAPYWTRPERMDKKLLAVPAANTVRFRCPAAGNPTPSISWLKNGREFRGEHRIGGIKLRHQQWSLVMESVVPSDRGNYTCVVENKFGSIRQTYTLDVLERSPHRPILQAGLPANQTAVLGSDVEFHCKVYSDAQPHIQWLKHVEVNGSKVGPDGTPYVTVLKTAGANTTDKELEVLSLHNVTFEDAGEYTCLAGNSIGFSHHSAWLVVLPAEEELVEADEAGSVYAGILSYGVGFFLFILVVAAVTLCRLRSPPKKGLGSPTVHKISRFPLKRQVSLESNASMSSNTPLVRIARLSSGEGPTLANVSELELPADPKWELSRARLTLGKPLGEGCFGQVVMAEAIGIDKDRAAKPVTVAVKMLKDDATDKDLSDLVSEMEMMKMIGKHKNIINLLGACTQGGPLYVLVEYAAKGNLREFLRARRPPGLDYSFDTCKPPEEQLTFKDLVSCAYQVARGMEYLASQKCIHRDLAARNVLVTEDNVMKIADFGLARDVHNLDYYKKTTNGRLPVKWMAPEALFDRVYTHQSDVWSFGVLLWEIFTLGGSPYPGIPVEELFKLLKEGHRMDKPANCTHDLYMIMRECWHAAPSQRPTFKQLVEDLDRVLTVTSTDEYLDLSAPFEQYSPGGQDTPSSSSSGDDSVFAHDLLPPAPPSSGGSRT
Sequence of FGFR1 (P11362 22-822): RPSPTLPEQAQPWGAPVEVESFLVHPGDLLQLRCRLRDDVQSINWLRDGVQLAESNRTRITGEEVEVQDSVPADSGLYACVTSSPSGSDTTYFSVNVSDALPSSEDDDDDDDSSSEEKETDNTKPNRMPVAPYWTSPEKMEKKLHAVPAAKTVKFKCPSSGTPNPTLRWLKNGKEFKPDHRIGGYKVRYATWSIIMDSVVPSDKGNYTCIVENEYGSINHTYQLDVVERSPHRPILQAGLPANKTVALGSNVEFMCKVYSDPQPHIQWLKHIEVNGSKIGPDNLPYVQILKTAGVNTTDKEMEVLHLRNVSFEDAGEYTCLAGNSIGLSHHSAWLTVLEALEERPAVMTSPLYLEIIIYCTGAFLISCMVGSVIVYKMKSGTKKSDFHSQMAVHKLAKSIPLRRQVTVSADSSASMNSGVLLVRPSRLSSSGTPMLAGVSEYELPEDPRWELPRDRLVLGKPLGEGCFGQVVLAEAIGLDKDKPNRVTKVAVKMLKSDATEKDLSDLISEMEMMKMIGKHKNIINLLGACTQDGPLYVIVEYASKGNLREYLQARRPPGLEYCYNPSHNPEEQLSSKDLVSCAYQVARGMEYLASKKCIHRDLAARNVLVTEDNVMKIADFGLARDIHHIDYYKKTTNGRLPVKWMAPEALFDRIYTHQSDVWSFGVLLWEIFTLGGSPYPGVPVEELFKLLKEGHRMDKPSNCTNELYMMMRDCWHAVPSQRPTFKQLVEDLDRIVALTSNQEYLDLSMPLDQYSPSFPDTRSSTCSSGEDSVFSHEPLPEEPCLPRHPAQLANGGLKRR

COc1cc(OC)c(F)c(N2Cc3cnc4[nH]ncc4c3N(c3cnn(CC(F)F)c3)C2=O)c1F [Example 175, 3-(2,6-difluoro-3,5-dimethoxyphenyl)-1-[1-(2,2-difluoroethyl)-1H-pyrazol-4-yl]-1,3,4,7-tetrahydro-2H-pyrazolo[4′,3′:5,6]pyrido[4,3-d]pyrimidin-2-one]
< 100 nM: all assays above

COc1cccc(CN2C(=O)N(c3c(F)c(OC)cc(OC)c3F)Cc3cnc4[nH]ncc4c32)n1 [Example 176, 3-(2,6-difluoro-3,5-dimethoxyphenyl)-1-[(6-methoxypyridin-2-yl)methyl]-1,3,4,7-tetrahydro-2H-pyrazolo[4′,3′:5,6]pyrido[4,3-d]pyrimidin-2-one]
< 100 nM: all assays above

COc1cc(CN2C(=O)N(c3c(F)c(OC)cc(OC)c3F)Cc3cnc4[nH]ncc4c32)ccn1 [Example 177, 3-(2,6-difluoro-3,5-dimethoxyphenyl)-1-[(2-methoxypyridin-4-yl)methyl]-1,3,4,7-tetrahydro-2H-pyrazolo[4′,3′:5,6]pyrido[4,3-d]pyrimidin-2-one]
< 100 nM: all assays above

COc1cc(OC)c(F)c(N2Cc3cnc4[nH]ncc4c3N(C[C@H]3CCOC3)C2=O)c1F [Example 178, 3-(2,6-difluoro-3,5-dimethoxyphenyl)-1-[(3R)-tetrahydrofuran-3-ylmethyl]-1,3,4,7-tetrahydro-2H-pyrazolo[4′,3′:5,6]pyrido[4,3-d]pyrimidin-2-one]
< 100 nM: all assays above

COc1cc(OC)c(F)c(N2Cc3cnc4[nH]ncc4c3N(C[C@@H]3CCOC3)C2=O)c1F [Example 179, 3-(2,6-difluoro-3,5-dimethoxyphenyl)-1-[(3S)-tetrahydrofuran-3-ylmethyl]-1,3,4,7-tetrahydro-2H-pyrazolo[4′,3′:5,6]pyrido[4,3-d]pyrimidin-2-one]
< 100 nM: all assays above

COc1cc(OC)c(F)c(N2Cc3cnc4[nH]c(CN5CCOCC5)cc4c3N(c3ccccc3F)C2=O)c1F [Example 180, 3-(2,6-difluoro-3,5-dimethoxyphenyl)-1-(2-fluorophenyl)-8-(morpholin-4-ylmethyl)-1,3,4,7-tetrahydro-2H-pyrrolo[3′,2′:5,6]pyrido[4,3-d]pyrimidin-2-one]
< 100 nM: all assays above

CCN1CCN(Cc2cc3c4c(cnc3[nH]2)CN(c2c(F)c(OC)cc(OC)c2F)C(=O)N4c2ccccc2F)CC1 [Example 181, 3-(2,6-difluoro-3,5-dimethoxyphenyl)-8-[(4-ethylpiperazin-1-yl)methyl]-1-(2-fluorophenyl)-1,3,4,7-tetrahydro-2H-pyrrolo[3′,2′:5,6]pyrido[4,3-d]pyrimidin-2-one]
< 100 nM: all assays above

COc1cc(OC)c(F)c(N2Cc3cnc4[nH]c(CN5CCOCC5)cc4c3N(C3CCC3)C2=O)c1F [Example 182, 1-cyclobutyl-3-(2,6-difluoro-3,5-dimethoxyphenyl)-8-(morpholin-4-ylmethyl)-1,3,4,7-tetrahydro-2H-pyrrolo[3′,2′:5,6]pyrido[4,3-d]pyrimidin-2-one]
< 100 nM: all assays above

COc1cc(OC)c(F)c(N2Cc3cnc4[nH]c(CCN5CCOCC5)cc4c3N(C3CCC3)C2=O)c1F [Example 183, 1-cyclobutyl-3-(2,6-difluoro-3,5-dimethoxyphenyl)-8-(2-morpholin-4-ylethyl)-1,3,4,7-tetrahydro-2H-pyrrolo[3′,2′:5,6]pyrido[4,3-d]pyrimidin-2-one]
< 100 nM: all assays above

CCCN1C(=O)N(c2c(F)c(OC)cc(OC)c2F)Cc2cnc3[nH]c(CN4CCOCC4)cc3c21 [Example 184, 3-(2,6-difluoro-3,5-dimethoxyphenyl)-8-(morpholin-4-ylmethyl)-1-propyl-1,3,4,7-tetrahydro-2H-pyrrolo[3′,2′:5,6]pyrido[4,3-d]pyrimidin-2-one]
< 100 nM: all assays above

CCN1C(=O)N(c2c(F)c(OC)cc(OC)c2F)Cc2cnc3[nH]c(CCN4CCOCC4)cc3c21 [Example 185, 3-(2,6-difluoro-3,5-dimethoxyphenyl)-1-ethyl-8-(2-morpholin-4-ylethyl)-1,3,4,7-tetrahydro-2H-pyrrolo[3′,2′:5,6]pyrido[4,3-d]pyrimidin-2-one]
< 100 nM: all assays above

COc1cc(OC)c(F)c(N2Cc3cnc4[nH]c(CN5CCOCC5)cc4c3N(C3CC3)C2=O)c1F [Example 186, 1-cyclopropyl-3-(2,6-difluoro-3,5-dimethoxyphenyl)-8-(morpholin-4-ylmethyl)-1,3,4,7-tetrahydro-2H-pyrrolo[3′,2′:5,6]pyrido[4,3-d]pyrimidin-2-one]
< 100 nM: all assays above

COc1cc(OC)c(F)c(N2Cc3cnc4[nH]c(CN5CCN(C)CC5)cc4c3N(C3CC3)C2=O)c1F [Example 187, 1-cyclopropyl-3-(2,6-difluoro-3,5-dimethoxyphenyl)-8-[(4-methylpiperazin-1-yl)methyl]-1,3,4,7-tetrahydro-2H-pyrrolo[3′,2′:5,6]pyrido[4,3-d]pyrimidin-2-one]
< 100 nM: all assays above

CCN1CCN(Cc2cc3c4c(cnc3[nH]2)CN(c2c(F)c(OC)cc(OC)c2F)C(=O)N4C2CC2)CC1 [Example 188, 1-cyclopropyl-3-(2,6-difluoro-3,5-dimethoxyphenyl)-8-[(4-ethylpiperazin-1-yl)methyl]-1,3,4,7-tetrahydro-2H-pyrrolo[3′,2′:5,6]pyrido[4,3-d]pyrimidin-2-one]
< 100 nM: all assays above

COc1cc(OC)c(F)c(N2Cc3cnc4[nH]c(CN5CCOCC5)cc4c3N(c3ccc(F)cc3)C2=O)c1F [Example 189, 3-(2,6-difluoro-3,5-dimethoxyphenyl)-1-(4-fluorophenyl)-8-(morpholin-4-ylmethyl)-1,3,4,7-tetrahydro-2H-pyrrolo[3′,2′:5,6]pyrido[4,3-d]pyrimidin-2-one]
< 100 nM: all assays above

COc1cc(OC)c(F)c(N2Cc3cnc4[nH]c(CN5CCN(C)CC5)cc4c3N(c3ccc(F)cc3)C2=O)c1F [Example 190, 3-(2,6-difluoro-3,5-dimethoxyphenyl)-1-(4-fluorophenyl)-8-[(4-methylpiperazin-1-yl)methyl]-1,3,4,7-tetrahydro-2H-pyrrolo[3′,2′:5,6]pyrido[4,3-d]pyrimidin-2-one]
< 100 nM: all assays above

CCN1CCN(Cc2cc3c4c(cnc3[nH]2)CN(c2c(F)c(OC)cc(OC)c2F)C(=O)N4c2ccc(F)cc2)CC1 [Example 191, 3-(2,6-difluoro-3,5-dimethoxyphenyl)-1-(4-fluorophenyl)-8-[(4-ethylpiperazin-1-yl)methyl]-1,3,4,7-tetrahydro-2H-pyrrolo[3′,2′:5,6]pyrido[4,3-d]pyrimidin-2-one]
< 100 nM: all assays above

COc1cc(OC)c(F)c(N2Cc3cnc4[nH]c(CN5CCN(C)CC5)cc4c3N(c3cccc(F)c3F)C2=O)c1F [Example 192, 3-(2,6-difluoro-3,5-dimethoxyphenyl)-1-(2,3-difluorophenyl)-8-[(4-methylpiperazin-1-yl)methyl]-1,3,4,7-tetrahydro-2H-pyrrolo[3′,2′:5,6]pyrido[4,3-d]pyrimidin-2-one]
< 100 nM: all assays above

CCN1CCN(Cc2cc3c4c(cnc3[nH]2)CN(c2c(F)c(OC)cc(OC)c2F)C(=O)N4c2cccc(F)c2F)CC1 [Example 193, 3-(2,6-difluoro-3,5-dimethoxyphenyl)-1-(2,3-difluorophenyl)-8-[(4-ethylpiperazin-1-yl)methyl]-1,3,4,7-tetrahydro-2H-pyrrolo[3′,2′:5,6]pyrido[4,3-d]pyrimidin-2-one]
< 100 nM: all assays above

COc1cc(OC)c(F)c(N2Cc3cnc4[nH]c(CN5CCOCC5)cc4c3N(c3ccncc3)C2=O)c1F [Example 194, 3-(2,6-difluoro-3,5-dimethoxyphenyl)-8-(morpholin-4-ylmethyl)-1-pyridin-4-yl-1,3,4,7-tetrahydro-2H-pyrrolo[3′,2′:5,6]pyrido[4,3-d]pyrimidin-2-one]
< 100 nM: all assays above
